Among the data in ChEMBL document CHEMBL5634079, “Development of novel celastrol-ligustrazine hybrids as potent peroxiredoxin 1 inhibitors against lung cancer” (Eur J Med Chem, 2023) are IC50, inhibition and Activity values, retold here.

Data set [1] is described as follows: Antiproliferative activity against human LTEP-a2 cells assessed as inhibition of cell growth incubated for 48 hrs by MTT assay. Format: functional, cell-based. As to conditions: LTEP-A2, 48 h. (Formazan colour is commonly taken as a measure of viable cells.)
In the next data set the test system is SK-HEP1. Description: Antiproliferative activity against human SK-HEP1 cells assessed as inhibition of cell growth incubated for 48 hrs by MTT assay. Format: functional, cell-based. Conditions: SK-HEP1, 48 h.
For data set [2], the system named is A549. Description: Inhibition of cell invasion in human A549 cells incubated for 12 to 48 hrs by crystal violet staining based microscopic analysis. It is filed as functional. Conditions: dose 2-4 µM, time 12-48 hrs.
For data set [3], the system named is A549. In words: Induction of apoptosis in human A549 cells assessed as late apoptotic cells at 2 uM incubated for 48 hrs by Annexin V-FITC and PI staining based flow cytometric analysis (reference value: 0.73%). It is filed as functional. For orientation: In flow cytometry, cells or beads pass a laser one at a time.
In data set [4] the test system is A549. Description: Induction of apoptosis in human A549 cells assessed as early apoptotic cells at 4 uM incubated for 48 hrs by Annexin V-FITC and PI staining based flow cytometric analysis (reference value: 0.76%). Format: functional.
Data set [5] relates to A549. Description: Downregulation of PRDX1 level in human A549 cells at 2 to 4 uM by Western blot analysis. It is filed as functional, cell-based. Conditions: dose 2-4 µM. (In western blotting, separated proteins are transferred to a membrane and probed.)
For data set [6], the system named is A549. Description: Downregulation of PRDX6 level in human A549 cells at 2 to 4 uM by Western blot analysis. Format: functional, cell-based. Conditions: dose 2-4 µM.
The test system of data set [7] is A549. Description: Induction of cell cycle arrest in human A549 cells assessed as decrease in CDK2 level at 2 to 4 uM by Western blot analysis. Format: functional, cell-based. Conditions: dose 2-4 µM.
The test system of data set [8] is A549. In words: Induction of cell cycle arrest in human A549 cells assessed as decrease in CDK4 level at 2 to 4 uM by Western blot analysis. It is filed as functional, cell-based. As to conditions: dose 2-4 µM.
In data set [9] the test system is A549. In words: Induction of apoptosis in human A549 cells assessed as increase in cleaved caspase-8 expression at 2 to 4 uM by Western blot analysis. Format: functional, cell-based. Conditions: dose 2-4 µM.
The test system of data set [10] is A549. In words: Induction of apoptosis in human A549 cells assessed as decrease in PARP level at 2 to 4 uM by Western blot analysis. As to conditions: dose 2-4 µM. It is filed as functional, cell-based.
The nature of data set [11]: Toxicity in C57BL/6J mouse implanted with mouse Lewis lung carcinoma cell line assessed as decrease in body weight at 0.5 to 1 mg/kg, ip administered every day for 19 days. Conditions: in vivo, 456 h, dose 0.5-1 mg/kg, time 19 day. It is filed as organism-based.
For a further data set, the system named is Lewis lung carcinoma. Description: Antitumor activity against mouse Lewis lung carcinoma cell line implanted in C57BL/6J mouse assessed as reduction in tumor cell proliferation by measuring reduction in Ki67 expression at 0.5 to 1 mg/kg, ip administered every day for 19 days. Format: functional, organism-based. Conditions: dose 0.5-1 mg/kg, time 19.0 day.

Structures are written as SMILES. Calls of active or inactive are those of the source. The calls are words filed in the database; no cut-off is given here.

Take `CC1=C(OC(=O)/C=C/c2ccccc2)C(=O)C=C2C1=CC=C1[C@@]2(C)CC[C@@]2(C)[C@@H]3C[C@](C)(C(=O)NCc4nc(C)c(C)nc4C)CC[C@]3(C)CC[C@]12C`: the IC50 (as a rule, the concentration needed to halve the response being measured) in data set [1] came to 2930 nM; in the data set on SK-HEP1, 2420 nM. Moreover, the inhibition result in the data set on A549 [2] is “Dose-Dependent Effect”. Also, the Activity in the data set with A549 [3] is on record as 4.91%; in the data set with A549 [4], 18.5%; in data set [11] it was “Non-Toxic”. Further, the result in the data set on A549 [5], in the data set with A549 [6], in the data set on A549 [7], in the data set with A549 [8], in the data set with A549 [9] and in the data set with A549 [10] was Active. The result in the data set with Lewis lung carcinoma was Active.
